Results on 26 compounds are retold here after patent US20260347338A1, “PYRIMIDINE/PYRIDINE DERIVATIVES OR SALTS THEREOF AND PHARMACEUTICAL COMPOSITIONS COMPRISING THE SAME” (YUHAN CORPORATION, priority 2023, published 2026).

Some results are limits rather than exact numbers.

This assay concerns the target T1, human recombinant HPK1 (Homo sapiens, UniProt Q92918).
T1 construct: purchased BPS Bioscience
Put plainly: Inhibitory activity against human recombinant HPK1 (TR-FRET). It is filed as biochemical. The conditions noted are these: ULight-p70S6K peptide, ATP at Km, room temperature, 1 hour, 0.32 to 1000 nM compound. The procedure:
Test Example: Evaluation of Inhibitory Activity Against Human Recombinant HPK1
The inhibitory activity against human recombinant HPK1 was evaluated using the Time-Resolved Fluorescence Resonance Energy Transfer (TR-FRET) technology of Perkin-Elmer. The test compound was prepared as a 20 mM stock solution with dimethyl sulfoxide (DMSO), serially diluted in a buffer solution, and used at final compound concentrations of 0.32 to 1000 nM. The evaluation of inhibitory activity was carried out at room temperature, using recombinant human HPK1 (BPS Bioscience). Briefly, recombinant human HPK1, serially diluted each test compound, ULight-p70S6K peptide substrate (PerkinElmer), and ATP at each concentration (Km and final concentration) were added to a kinase buffer solution (50 mM HEPES pH 7.4, 10 mM MgCl2, 1 mM EGTA, 3 mM MnCl2, 2 mM DTT, and 0.01% Tween-20). The resulting mixture was added to each well of a 384-well plate (Optiplate™ 384, white, PerkinElmer). The enzyme reaction was carried out at room temperature for 1 hour. After the reaction was suspended by adding 4 μL of a stop solution (10 mM EDTA) thereto, the mixture was stirred for 1 minute and then a detection solution containing Europium-labeled anti-phosphopeptide antibody (final concentration: 2 nM, PerkinElmer) was added thereto. The signals of TR-FRET at excitation wavelength (320 nm) and emission wavelength (665 nm) were detected using a microplate reader (Envision Multilabel Reader, Perkin-Elmer). Inhibition by the test compound was measured as % inhibition in the signals, compared to the control group treated with DMSO only. The IC50 value of each compound was calculated using the GraphPad Prism program (GraphPad Software, Inc., San Diego, CA, USA). The IC50 values of test compounds for inhibitory activity against HPK1 were classified as follows: • A: IC50≤10 nM • B: 10 nM<IC50≤50 nM • C: 50 nM<IC50≤100 nM • D: IC50>100 nM
(In general: Time-resolved FRET reads energy transfer from a long-lived donor to a nearby acceptor.)

T1 sequence (Q92918 whole entry): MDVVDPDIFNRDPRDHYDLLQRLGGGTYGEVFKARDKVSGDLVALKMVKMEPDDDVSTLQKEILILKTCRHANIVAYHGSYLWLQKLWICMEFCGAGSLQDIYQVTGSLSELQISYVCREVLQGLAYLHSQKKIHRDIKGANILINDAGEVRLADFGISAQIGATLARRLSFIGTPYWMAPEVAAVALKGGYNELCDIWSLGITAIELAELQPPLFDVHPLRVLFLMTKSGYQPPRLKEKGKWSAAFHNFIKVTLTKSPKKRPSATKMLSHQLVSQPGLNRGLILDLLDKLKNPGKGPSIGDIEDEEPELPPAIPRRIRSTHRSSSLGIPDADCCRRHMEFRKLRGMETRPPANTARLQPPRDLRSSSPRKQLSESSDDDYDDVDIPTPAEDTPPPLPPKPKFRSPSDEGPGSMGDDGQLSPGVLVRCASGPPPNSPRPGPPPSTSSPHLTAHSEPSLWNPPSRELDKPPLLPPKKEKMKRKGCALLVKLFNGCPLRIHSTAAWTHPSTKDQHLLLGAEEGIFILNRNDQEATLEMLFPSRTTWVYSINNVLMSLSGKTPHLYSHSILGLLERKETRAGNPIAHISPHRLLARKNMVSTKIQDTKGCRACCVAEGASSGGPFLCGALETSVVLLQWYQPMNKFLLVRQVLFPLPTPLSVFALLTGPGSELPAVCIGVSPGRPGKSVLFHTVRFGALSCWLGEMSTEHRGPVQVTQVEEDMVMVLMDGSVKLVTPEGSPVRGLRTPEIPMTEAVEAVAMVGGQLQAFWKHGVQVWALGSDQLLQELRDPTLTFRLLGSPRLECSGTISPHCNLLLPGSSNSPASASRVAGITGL

By IC50 is commonly meant the concentration needed to halve the response being measured. In the case of “2-(2-fluoro-6-methoxyphenyl)-6-((4-((S)-3-hydroxypiperidin-1-yl)-5-(1-(1-methylpiperidin-4-yl)-1H-pyrazol-4-yl)pyrimidin-2-yl)amino)nicotinonitrile [Example 63]”, the IC50 is 50 to 100 nM.

“2-(2-fluoro-6-methoxyphenyl)-N-(4-(2-methyl-2,8-diazaspiro[4.5]decan-8-yl)-5-(1-(2,2,2-trifluoroethyl)-1H-pyrazol-4-yl)pyridin-2-yl)pyrimidin-4-amine [Example 136]”: the IC50 was at most 10 nM. With “6-((6-(2-fluoro-6-methoxyphenyl)-5-nitropyridin-2-yl)amino)-N-((1R,3S)-3-hydroxycyclopentyl)-4-((S)-3-hydroxypiperidin-1-yl)nicotinamide [Example 195]”, the IC50 was at most 10 nM. `Cc1cncc(-c2nccc(Nc3cc(N4CCC[C@H](O)C4)c(C(=O)C4CC4)cn3)n2)c1` [Example 1, (S)-cyclopropyl(4-(3-hydroxypiperidin-1-yl)-6-((2-(5-methylpyridin-3-yl)pyrimidin-4-yl)amino)pyridin-3-yl)methanone]: the IC50 fell in the range of 10 to 50 nM. For `Nc1cncc(-c2nccc(Nc3cc(N4CCC[C@H](O)C4)c(C(=O)C4CC4)cn3)n2)c1` [Example 2, (S)-(6-((2-(5-aminopyridin-3-yl)pyrimidin-4-yl)amino)-4-(3-hydroxypiperidin-1-yl)pyridin-3-yl)(cyclopropyl)methanone], the IC50 fell in the range of 10 to 50 nM. For `COc1cncc(-c2nccc(Nc3cc(N4CCC[C@H](O)C4)c(C(=O)C4CC4)cn3)n2)c1` [Example 3, (S)-cyclopropyl(4-(3-hydroxypiperidin-1-yl)-6-((2-(5-methoxypyridin-3-yl)pyrimidin-4-yl)amino)pyridin-3-yl)methanone] the value was 50 to 100 nM.

With `O=C(c1cnc(Nc2ccnc(-c3cccc(O)c3)n2)cc1N1CCC[C@H](O)C1)C1CC1` [Example 4, (S)-cyclopropyl(6-((2-(3-hydroxyphenyl)pyrimidin-4-yl)amino)-4-(3-hydroxypiperidin-1-yl)pyridin-3-yl)methanone], the IC50 lay in the range of 50 to 100 nM. Regarding `COc1cccc(F)c1-c1nccc(Nc2cc(N3CCC[C@H](O)C3)c(C(=O)C3CC3)cn2)n1` [Example 5, (S)-cyclopropyl(6-((2-(2-fluoro-6-methoxyphenyl)pyrimidin-4-yl)amino)-4-(3-hydroxypiperidin-1-yl)pyridin-3-yl)methanone], the IC50 was 10 to 50 nM. As to `COc1cccc(F)c1-c1nccc(Nc2cc(N3CC(O)C3)c(C(=O)C3CC3)cn2)n1` [Example 6, cyclopropyl(6-((2-(2-fluoro-6-methoxyphenyl)pyrimidin-4-yl)amino)-4-(3-hydroxyazetidin-1-yl)pyridin-3-yl)methanone], the IC50 lay within 10 to 50 nM.

As to `COc1cccc(F)c1-c1nccc(Nc2cc(N3CCC[C@H](O)C3)c(-c3cnn(C4CCOCC4)c3)cn2)n1` [Example 7, (S)-1-(2-((2-(2-fluoro-6-methoxyphenyl)pyrimidin-4-yl)amino)-5-(1-(tetrahydro-2H-pyran-4-yl)-1H-pyrazol-4-yl)pyridin-4-yl)piperidin-3-ol], the IC50 is at most 10 nM. `COc1cccc(F)c1-c1nccc(Nc2cc(N3CCC[C@H](O)C3)c(C#Cc3cnn(C(F)(F)F)c3)cn2)n1` [Example 8, (S)-1-(2-((2-(2-fluoro-6-methoxyphenyl)pyrimidin-4-yl)amino)-5-((1-(trifluoromethyl)-1H-pyrazol-4-yl)ethynyl)pyridin-4-yl)piperidin-3-ol]: the IC50 lay within 10 to 50 nM. For the compound `COc1cccc(F)c1-c1nccc(Nc2cc(N3CCC[C@@H](O)C3)c(C#Cc3cnn(C(F)(F)F)c3)cn2)n1` [Example 9, (R)-1-(2-((2-(2-fluoro-6-methoxyphenyl)pyrimidin-4-yl)amino)-5-((1-(trifluoromethyl)-1H-pyrazol-4-yl)ethynyl)pyridin-4-yl)piperidin-3-ol], the IC50 fell in the range of 10 to 50 nM. For the compound `COc1cccc(F)c1-c1nccc(Nc2cc(N3CC(O)C3)c(C#CC3CCOCC3)cn2)n1` [Example 10, 1-(2-((2-(2-fluoro-6-methoxyphenyl)pyrimidin-4-yl)amino)-5-((tetrahydro-2H-pyran-4-yl)ethynyl)pyridin-4-yl)azetidin-3-ol], the IC50 was in the range of 10 to 50 nM. `COc1cccc(F)c1-c1nccc(Nc2cc(N3CCC[C@H](O)C3)c(C#CC3CCOCC3)cn2)n1` [Example 11, (S)-1-(2-((2-(2-fluoro-6-methoxyphenyl)pyrimidin-4-yl)amino)-5-((tetrahydro-2H-pyran-4-yl)ethynyl)pyridin-4-yl)piperidin-3-ol]: the IC50 was at most 10 nM. For `COc1cccc(F)c1-c1nccc(Nc2cc(N3CCC[C@H](O)C3)c(-c3cnn(C)c3)cn2)n1` [Example 12, (S)-1-(2-((2-(2-fluoro-6-methoxyphenyl)pyrimidin-4-yl)amino)-5-(1-methyl-1H-pyrazol-4-yl)pyridin-4-yl)piperidin-3-ol] the value was at most 10 nM; for `COc1cccc(F)c1-c1nccc(Nc2cc(N3CCC[C@H](O)C3)c(-c3cnn(C(C)C)c3)cn2)n1` [Example 13, (S)-1-(2-((2-(2-fluoro-6-methoxyphenyl)pyrimidin-4-yl)amino)-5-(1-isopropyl-1H-pyrazol-4-yl)pyridin-4-yl)piperidin-3-ol], at most 10 nM; for `COc1cccc(F)c1-c1nccc(Nc2cc(N3CCC[C@H](O)C3)c(-c3cnn(C4CCOC4)c3)cn2)n1` (stereo partly drawn) [Example 14, (3S)-1-(2-((2-(2-fluoro-6-methoxyphenyl)pyrimidin-4-yl)amino)-5-(1-(tetrahydrofuran-3-yl)-1H-pyrazol-4-yl)pyridin-4-yl)piperidin-3-ol], at most 10 nM. In the case of `COc1cccc(F)c1-c1nccc(Nc2cc(N3CCC[C@H](O)C3)c(-c3cnn(C4CCN(C)CC4)c3)cn2)n1` [Example 15, (S)-1-(2-((2-(2-fluoro-6-methoxyphenyl)pyrimidin-4-yl)amino)-5-(1-(1-methylpiperidin-4-yl)-1H-pyrazol-4-yl)pyridin-4-yl)piperidin-3-ol] it was at most 10 nM; in that of `COc1cccc(F)c1-c1nccc(Nc2cc(N3CCC[C@H](O)C3)c(-c3cnn(CC(F)(F)F)c3)cn2)n1` [Example 16, (S)-1-(2-((2-(2-fluoro-6-methoxyphenyl)pyrimidin-4-yl)amino)-5-(1-(2,2,2-trifluoroethyl)-1H-pyrazol-4-yl)pyridin-4-yl)piperidin-3-ol], at most 10 nM; in that of `COc1cccc(F)c1-c1nccc(Nc2cc(N3CCC[C@H](O)C3)c(-c3cnn(CC4CC4)c3)cn2)n1` [Example 17, (S)-1-(5-(1-(cyclopropylmethyl)-1H-pyrazol-4-yl)-2-((2-(2-fluoro-6-methoxyphenyl)pyrimidin-4-yl)amino)pyridin-4-yl)piperidin-3-ol], at most 10 nM. On to `COc1cccc(F)c1-c1nccc(Nc2cc(N3CCC[C@H](O)C3)c(-c3ccc(C4CCOCC4)cc3)cn2)n1` [Example 18, (S)-1-(2-((2-(2-fluoro-6-methoxyphenyl)pyrimidin-4-yl)amino)-5-(4-(tetrahydro-2H-pyran-4-yl)phenyl)pyridin-4-yl)piperidin-3-ol], for which the IC50 was at most 10 nM. For `COc1cccc(F)c1-c1nccc(Nc2cc(N3CCC[C@H](O)C3)c(-c3ccc(N4CCN(C)CC4)cc3)cn2)n1` [Example 19, (S)-1-(2-((2-(2-fluoro-6-methoxyphenyl)pyrimidin-4-yl)amino)-5-(4-(4-methylpiperazin-1-yl)phenyl)pyridin-4-yl)piperidin-3-ol], the IC50 is at most 10 nM. Take `COc1cccc(F)c1-c1nccc(Nc2cc(N3CCC[C@H](O)C3)c(-c3ccc(N4CCOCC4)nc3)cn2)n1` [Example 20, (S)-1-(6-((2-(2-fluoro-6-methoxyphenyl)pyrimidin-4-yl)amino)-6′-morpholino-[3,3′-bipyridin]-4-yl)piperidin-3-ol]: the IC50 is at most 10 nM. In the case of `OCc1csc(-c2nccc(Nc3cc(N4CCC[C@H](O)C4)c(-c4cnn(C5CCOCC5)c4)cn3)n2)c1` [Example 21, (S)-1-(2-((2-(4-(hydroxymethyl)thiophen-2-yl)pyrimidin-4-yl)amino)-5-(1-(tetrahydro-2H-pyran-4-yl)-1H-pyrazol-4-yl)pyridin-4-yl)piperidin-3-ol] it was 10 to 50 nM; in that of `O[C@H]1CCCN(c2cc(Nc3ccnc(-c4c(F)cccc4F)n3)ncc2-c2cnn(C3CCOCC3)c2)C1` [Example 22, (S)-1-(2-((2-(2,6-difluorophenyl)pyrimidin-4-yl)amino)-5-(1-(tetrahydro-2H-pyran-4-yl)-1H-pyrazol-4-yl)pyridin-4-yl)piperidin-3-ol], at most 10 nM. Consider `COc1c(F)ccc(F)c1-c1nccc(Nc2cc(N3CCC[C@H](O)C3)c(-c3cnn(C4CCOCC4)c3)cn2)n1` [Example 23, (S)-1-(2-((2-(3,6-difluoro-2-methoxyphenyl)pyrimidin-4-yl)amino)-5-(1-(tetrahydro-2H-pyran-4-yl)-1H-pyrazol-4-yl)pyridin-4-yl)piperidin-3-ol], for which the IC50 lay within 10 to 50 nM.
